test system: Kuramochi cells; assay: BrdU Cell Proliferation Assay; format: cell-based; settings: read-out: BrdU - KURAMOCHI.1: IC50
Procedure, shortened: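 Kuramochi cells were seeded at 2,000 cells/well, adhered overnight, then treated with a 10-point, 3-fold compound dilution series for 4 days. Proliferation was measured by a 1-hour BrdU pulse, anti-BrdU peroxidase colorimetric ELISA and 450 nm absorbance. Values were background-subtracted and normalized to DMSO wells.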

Compound	IC50 [µM]
CNC(=O)[C@@H](NC(=O)[C@@H]1CN(C(=O)c2cnn(Cc3ccccc3)c2)CC12CN(C(=O)C1(CC3CC3)CC1)C2)[C@@H](C)OCc1ccccc1 [I-116A]	> 10
CNC(=O)[C@@H](NC(=O)[C@@H]1CN(C(=O)c2cnn(Cc3ccccc3)c2)CC12CN(C(=O)C1(C#N)CC1)C2)[C@@H](C)OCc1ccccc1 [I-73A]	> 10
CNC(=O)[C@@H](NC(=O)[C@@H]1CN(C(=O)c2cnn(Cc3ccccc3)c2)CC12CN(C(=O)CC(C)(C)C)C2)[C@@H](C)OCc1ccccc1 [I-62A]	> 10
CNC(=O)[C@@H](NC(=O)[C@@H]1CN(C(=O)c2cn[nH]c2)CC12CN(C(=O)[C@H]1CC1(C)C)C2)[C@@H](C)OCC1CCCCC1 [I-66A, (S)—N-((2S,3R)-3-(cyclohexylmethoxy)-1-(methylamino)-1-oxobutan-2-yl)-2-((S)-2,2-dimethylcyclopropane-1-carbonyl)-6-(1H-pyrazole-4-carbonyl)-2,6-diazaspiro[3.4]octane-8-carboxamide]	> 10
CC1(C)C[C@@H]1C(=O)N1CC2(CN(C(=O)c3cnn(Cc4ccccc4)c3)C[C@H]2C(=O)Nc2cccc(-c3ccccc3)c2)C1 [I-63A]	5 to 10
CC1(C)C[C@@H]1C(=O)N1CC2(CN(C(=O)c3cnn(Cc4ccccc4)c3)C[C@@H]2C(=O)N[C@H]2C[C@@H]2c2cccc(Cl)c2)C1 [I-140B]	> 10
CNC(=O)[C@@H](NC(=O)[C@@H]1CN(C(=O)c2cnn(Cc3ccccc3)c2)CC12CN(C(=O)CC1(COC)CC1)C2)[C@@H](C)OCc1ccccc1 [I-82A]	> 10
CC1(C)C[C@@H]1C(=O)N1CC2(CN(C(=O)c3cnn(Cc4ccccc4)c3)C[C@@H]2C(=O)N[C@@H]2CC[C@@H]2O)C1 [I-201A]	> 10
C[C@@H](OCc1ccccc1)[C@H](NC(=O)C1CN(C(=O)c2cnn(Cc3ccccc3)c2)CC12CN(C(=O)[C@H]1CC1(C)C)C2)C(=O)NCC#CCN (stereo partly shown) [I-28]	> 10
CC1(C)C[C@@H]1C(=O)N1CC2(CN(C(=O)c3cnn(Cc4ccccc4)c3)CC2C(=O)Nc2ncc(-c3ccccc3)o2)C1 (stereo partly shown) [I-93]	> 10
CNC(=O)[C@@H](NC(=O)[C@@H]1CN(C(=O)c2cnn(Cc3ccccc3)c2)CC12CN(C(=O)Cc1ccccc1)C2)[C@@H](C)OCc1ccccc1 [I-25A, (S)-6-(1-benzyl-1H-pyrazole-4-carbonyl)-N-((2S,3R)-3-(benzyloxy)-1-(methylamino)-1-oxobutan-2-yl)-2-(2-phenylacetyl)-2,6-diazaspiro[3.4]octane-8-carboxamide]	> 10
CNC(=O)[C@@H](NC(=O)[C@@H]1CN(C(=O)c2cnn(Cc3ccc(F)cc3)c2)CC12CN(C(=O)[C@H]1CC1(C)C)C2)[C@@H](C)OCC1CCC(F)(F)CC1 [I-170]	0.5 to 5
CNC(=O)[C@@H](NC(=O)[C@H]1CN(C(=O)c2cccnc2)CC12CN(C(=O)[C@H]1CC1(C)C)C2)[C@@H](C)OCc1ccccc1 [I-42B]	> 10
CNC(=O)[C@@H](NC(=O)[C@H]1CN(Cc2cnco2)CC12CN(C(=O)[C@H]1CC1(C)C)C2)[C@@H](C)OCc1ccccc1 [I-78B]	> 10
CNC(=O)[C@@H](NC(=O)[C@H]1CN(C(=O)c2cnn(Cc3ccccc3)c2)CC12CN(C(=O)CC(C)(C)C)C2)[C@@H](C)OCc1ccccc1 [I-62B]	> 10
C[C@@H](OCC1CCCCC1)[C@H](NC(=O)[C@H]1CN(C(=O)c2cnn(Cc3ccccc3)c2)CC12CN(C(=O)[C@H]1CC1(C)C)C2)C(=O)N1CCC(F)(F)CC1 [I-149B]	> 10
C[C@@H](OCC1CCCCC1)[C@H](NC(=O)[C@@H]1CN(C(=O)c2cnn(Cc3ccccc3)c2)CC12CN(C(=O)[C@H]1CC1(C)C)C2)C(=O)N1CCC[C@H]1CN [I-220]	> 10
CNC(=O)[C@@H](NC(=O)[C@H]1CN(C(=O)c2cncs2)CC12CN(C(=O)[C@H]1CC1(C)C)C2)[C@@H](C)OCc1ccccc1 [I-24B]	> 10
CNC(=O)[C@@H](NC(=O)[C@H]1CN(C(=O)c2cnn(Cc3ccccc3)c2)CC12CN(C(=O)C(C)(C)C)C2)[C@@H](C)OCc1ccccc1 [I-65B]	> 10
CC1(C)C[C@@H]1C(=O)N1CC2(CN(C(=O)c3cnn(Cc4ccccc4)c3)C[C@H]2C(=O)N[C@@H]2CCCN(CC3CCCCC3)C2)C1 [I-212]	> 10
CO[C@H](C)[C@H](NC(=O)[C@@H]1CN(C(=O)c2cnn(C)c2)CC12CN(C(=O)[C@H]1CC1(C)C)C2)C(=O)N1CCCCC1 [I-303]	> 10
C[C@@H](OCC1CCC(F)(F)CC1)[C@H](NC(=O)[C@H]1CN(C(=O)c2cn[nH]c2)CC12CN(C(=O)[C@H]1CC1(C)C)C2)C(=O)N1CCC(F)(F)CC1 [I-228B]	> 10
CNC(=O)[C@@H](NC(=O)[C@@H]1CN(C(=O)c2scnc2C2CC2)CC12CN(C(=O)[C@H]1CC1(C)C)C2)[C@@H](C)OCC1CCCCC1 [I-185A]	> 10
C[C@@H](OCC1CCCCC1)[C@H](NC(=O)[C@H]1CN(C(=O)c2cn[nH]c2)CC12CN(C(=O)[C@H]1CC1(C)C)C2)C(=O)N1CCCCC1 [I-151B]	> 10
C[C@@H](NC(=O)[C@@H]1CN(C(=O)c2cnn(Cc3ccccc3)c2)CC12CN(C(=O)[C@H]1CC1(C)C)C2)c1cccc(F)c1 [I-128A]	> 10
CNC(=O)[C@@H](NC(=O)[C@@H]1CN(C(=O)c2cnn(Cc3ccccc3)c2)CC12CN(C(=O)CC1CCC1)C2)[C@@H](C)OCc1ccccc1 [I-27A]	> 10

Compound	IC50 [µM]
CNC(=O)[C@@H](NC(=O)[C@H]1CN(C(=O)c2nccs2)CC12CN(C(=O)[C@H]1CC1(C)C)C2)[C@@H](C)OCC1CCCCC1 [I-146]	> 10
CNC(=O)[C@@H](NC(=O)[C@H]1CN(C(=O)c2cnn(Cc3ccccc3)c2)CC12CN(C(=O)CC(C)C)C2)[C@@H](C)OCc1ccccc1 [I-69B]	> 10
CCCC(=O)N1CC2(C1)CN(C(=O)c1cnn(Cc3ccccc3)c1)C[C@@H]2C(=O)N[C@H](C(=O)NC)[C@@H](C)OCc1ccccc1 [I-60B]	> 10
CNC(=O)[C@@H](NC(=O)[C@@H]1CN(C(=O)c2nccs2)CC12CN(C(=O)[C@H]1CC1(C)C)C2)[C@@H](C)OCC1CCCCC1 [I-169]	> 10
CNC(=O)[C@@H](NC(=O)[C@@H]1CN(C(=O)c2cnc(COC)s2)CC12CN(C(=O)[C@H]1CC1(C)C)C2)[C@@H](C)OCC1CCCCC1 [I-145A]	0.5 to 5
CNC(=O)[C@@H](NC(=O)[C@H]1CN(C(=O)c2sc(Cl)nc2Cl)CC12CN(C(=O)[C@H]1CC1(C)C)C2)[C@@H](C)OCC1CCCCC1 [I-232B]	> 10
C[C@@H](OCC1CCCCC1)[C@H](NC(=O)[C@@H]1CN(C(=O)c2ccns2)CC12CN(C(=O)[C@H]1CC1(C)C)C2)C(=O)N1CCCCC1 [I-217]	≤ 0.5
CNC(=O)[C@@H](NC(=O)[C@@H]1CN(C(=O)c2cnn(Cc3ccccc3)c2)CC12CN(C(=O)C(C)(C)F)C2)[C@@H](C)OCc1ccccc1 [I-90A]	> 10
CC1(C)C[C@@H]1C(=O)N1CC2(CN(C(=O)c3cnn(Cc4ccccc4)c3)C[C@@H]2C(=O)NCCOCc2ccccc2)C1 [I-96B]	> 10
COC(=O)C1(NC(=O)[C@H]2CN(C(=O)c3cnn(Cc4ccccc4)c3)CC23CN(C(=O)[C@H]2CC2(C)C)C3)COC1 [I-142A]	> 10
CNC(=O)[C@@H](NC(=O)[C@H]1CN(C(=O)c2scnc2C(F)(F)F)CC12CN(C(=O)[C@H]1CC1(C)C)C2)[C@@H](C)OCC1CCCCC1 [I-163B]	> 10
CNC(=O)[C@@H](NC(=O)[C@H]1CN(C(=O)c2cnc(C3CC3)s2)CC12CN(C(=O)[C@H]1CC1(C)C)C2)[C@@H](C)OCC1CCCCC1 [I-178B]	> 10
CNC(=O)[C@H](COCc1ccccc1)NC(=O)[C@@H]1CN(C(=O)c2cnn(Cc3ccccc3)c2)CC12CN(C(=O)C(C)(C)C)C2 [I-100A]	> 10
CNC(=O)[C@@H](NC(=O)[C@H]1CN(C(=O)c2scnc2C2CC2)CC12CN(C(=O)[C@H]1CC1(C)C)C2)[C@@H](C)OCC1CCCCC1 [I-185B]	> 10
CNC(=O)[C@@H](NC(=O)[C@@H]1CN(C(=O)c2cnn(Cc3ccccc3)c2)CC12CN(C(=O)C1C(C)(C)C1(C)C)C2)[C@@H](C)OCc1ccccc1 [I-89A]	> 10
CNC(=O)[C@@H](NC(=O)[C@H]1CN(C(=O)c2cnn(Cc3ccccc3)c2)CC12CN(C(=O)[C@H]1CC1(C)C)C2)[C@@H](C)OCC1(C(F)(F)F)CC1 [I-205B]	> 10
CNC(=O)[C@@H](NC(=O)[C@H]1CN(C(=O)c2cn[nH]c2)CC12CN(C(=O)CC1CC1)C2)[C@@H](C)OCc1ccccc1 [I-41B]	> 10
CNC(=O)[C@@H](NC(=O)[C@H]1CN(C(=O)c2cnco2)CC12CN(C(=O)[C@H]1CC1(C)C)C2)[C@@H](C)OCc1ccccc1 [I-39B]	> 10
CNC(=O)[C@@H](NC(=O)[C@H]1CN(C(=O)c2cnn(CC(F)(F)F)c2)CC12CN(C(=O)CC1CC1)C2)[C@@H](C)OCc1ccccc1 [I-43B]	> 10
CNC(=O)[C@@H](NC(=O)[C@@H]1CN(C(=O)c2cnn(Cc3ccccc3)c2)CC12CN(C(=O)[C@H]1CC1(C)C)C2)[C@@H](C)OCc1cccnc1 [I-247]	> 10
CNC(=O)[C@@H](NC(=O)[C@@H]1CN(C(=O)c2cnn(Cc3ccccc3)c2)CC12CN(C(=O)C1(CCOC)CC1)C2)[C@@H](C)OCc1ccccc1 [I-102A]	> 10
CNC(=O)[C@@H](NC(=O)[C@@H]1CN(Cc2cnn(C)c2)CC12CN(C(=O)[C@H]1CC1(C)C)C2)[C@@H](C)OCc1ccccc1 [I-47A]	> 10
CNC(=O)[C@@H](NC(=O)[C@H]1CN(C(=O)c2cnc[nH]2)CC12CN(C(=O)[C@H]1CC1(C)C)C2)[C@@H](C)OCc1ccccc1 [I-44B]	> 10
CNC(=O)[C@@H](NC(=O)[C@H]1CN(C(=O)c2cnn(Cc3ccccc3)c2)CC12CN(C(=O)[C@H]1CC1(C)C)C2)[C@@H](C)OCC(C)(C)C [I-130B]	> 10
CNC(=O)[C@@H](NC(=O)[C@H]1CN(C(=O)c2cnn(Cc3ccccc3)c2)CC12CN(C(=O)CC1(COC)CC1)C2)[C@@H](C)OCc1ccccc1 [I-82B]	> 10
C[C@@H](OCc1ccccc1)[C@H](NC(=O)C1CN(C(=O)c2cnn(Cc3ccccc3)c2)CC12CN(C(=O)[C@H]1CC1(C)C)C2)C(=O)N1CCNCC1 (stereo partly shown) [I-32]	> 10

Reference: patent publication US12065445B2, “CDK2 inhibitors and methods of using the same” (Cedilla Therapeutics, Inc., priority 2021, dated 2024)
